Literature values, collected in patent US8007545B2, “Deodorant compositions” (Kao Corporation, priority 2005, dated 2011).

Conditions: 1-octanol/water; actual database value or C log P

Row | SMILES | log P
1 | CCCCCCOC(CO)COCC(O)CO (stereo not drawn) [b3-1, Glyceryl ether monohexyl ether] | 1.1
2 | CCCCC(CC)COCC(O)CO (stereo not drawn) [b3-2, 2-Ethylhexyl monoglyceryl ether] | 2.0
3 | CCCCOCCOCCO [b3-3, Diethylene glycol monobutyl ether] | 0.6
